From patent publication US9718840B2, “Condensed 5-oxazolidinone derivative” (SUMITOMO DAINIPPON PHARMA CO., LTD., priority 2014, dated 2017)

What was measured:
[1] = test system: Rabbit venous thrombus models; test: Effect of combined use with antiplatelet drug using rabbit AVST model; format: in vivo; settings: alone, dose 0.67 + 1.0 mg/kg + mg/kg/h i.v.
Experimental: Rabbit venous thrombus models were prepared by a modification of the report of Wong et al. (Wong P C. et al., J. Pharmacol. Exp. Ther. 292: 351-357 (2000)). […] A tracheostomy tube was inserted to each rabbit, which was then ventilated using a respirator. For the intravenous administration of a test drug and blood collection, catheters were inserted to the right femoral vein and the right femoral artery, respectively. An arteriovenous shunt filled with saline was inserted to the carotid artery and the jugular vein. […] Also, 4-0 silk thread having a length of 5 cm was indwelled in the arteriovenous shunt. Blood was sent for 30 minutes from the carotid artery to the jugular vein via the arteriovenous shunt. The shunt was removed, and the weight of the silk thread covered with thrombus was measured. The weight of the silk thread measured before the experiment was subtracted from the measured weight, and the obtained value was used as a wet thrombus weight. One hour before the open of the arteriovenous shunt, the test drug or a vehicle was promptly intravenously administered (0.67 mL/kg) and then continuously intravenously administered (1 mL/kg/hr). The continuous injection was continued throughout the experiment. […] STA calcium chloride (manufactured by Roche Diagnostics K.K.) was added in an amount equal thereto, and the time required for coagulation was measured.

[2] = test system: Rabbit nail bleeding models; test: Effect of combined use with antiplatelet drug using rabbit nail bleeding model; format: in vivo; settings: alone, dose 0.67 + 1.0 mg/kg + mg/kg/h i.v.
Experimental: Rabbit nail bleeding models were prepared by a modification of the report of Wong et al. (Wong P C. et al., J. Thromb. Haemost. 7: 1313-1320 (2009)). Male rabbits (JW, 1.5 to 3.5 kg) were anesthetized by the inhalation of isoflurane (ISOFLU®, manufactured by DS Pharma Animal Health Co., Ltd.) (introduced anesthesia: 4%, continuous anesthesia: 2 to 3%). For the intravenous administration of a test drug or a vehicle, an indwelling needle was inserted to the auricular vein, and the test drug or the vehicle was promptly intravenously administered (0.67 mL/kg) and then continuously intravenously administered (1 mL/kg/hr). One hour after the start of administration, three posterior toenails were cut and dipped in saline heated to approximately 37° C., and the bleeding time was measured. The bleeding time was defined as a time from the cutting to the arrest of bleeding, and an average value from the three nails was used. The measurement time was 60 minutes at the maximum. If bleeding for 60 minutes or longer was confirmed, the bleeding time was regarded as 60 minutes.

[3] = test system: male cynomolgus monkey; test: Cynomolgus monkey aPTT evaluation test; format: in vivo
Experimental: The compound of Example 7 was suspended in a 0.5% aqueous methylcellulose solution, and this suspension was orally administered at a dose of 10 mg/5 mL/kg or 30 mg/5 mL/kg to a male cynomolgus monkey fasted for 16 hours. Blood collection for aPTT evaluation was carried out before administration and 0.5, 1, 2, 4, 6, and 24 hours after administration. 0.9 mL of blood was collected using a syringe packed with 100 μL of 3.2% sodium citrate, transferred to a centrifugal tube cooled in ice, and centrifuged at 2100 g at 4° C. for 10 minutes to prepare plasma. After incubation at 37° C. for 6 minutes, an STA reagent Cephascreen (for aPTT assay; manufactured by Roche Diagnostics K.K.) was added in an amount equal to the amount of the plasma, and the mixture was further incubated for 4 minutes. STA calcium chloride (manufactured by Roche Diagnostics K.K.) was added in an amount equal to the amount of the plasma, and the time required for coagulation was measured. Blood collection for the measurement of the compound concentration was carried out 0.5, 1, 2, 4, 6, and 24 hours after administration. 1 mL of blood was collected using a syringe packed with 10 μL of Novo-Heparin Injection, transferred to a centrifugal tube cooled in ice, and centrifuged at 2100 g at 4° C. for 10 minutes to prepare plasma. 200 μL of the prepared plasma was added to a tube containing 600 μL of acetonitrile and mixed for approximately 10 seconds using a vortex mixer. Then, the concentration of the compound of Reference Example 2-6 (a value based on the free form) was measured.

[4] = Ester metabolism stability test: stability in human liver; format: in vitro ADME; settings: 37° C., 20 minutes, with NADPH
Experimental: A reaction solution containing 5 μL of human liver S9 (manufactured by Sekisui XenoTech, LLC, 20 mg/mL) mixed with 20 μL of 500 mmol/L Kpi (pH 7.4), 40 μL of a 5 mmol/L aqueous solution of NADPH (manufactured by Oriental Yeast Co., Ltd.), and 133 μL of ion-exchange water was added to 2 μL of a DMSO solution containing a 100 μmol/L test substance, and the mixture was incubated at 37° C. for 20 minutes. After the incubation, the metabolic reaction was terminated by the addition of 600 μL of acetonitrile.

[5] = test system: human plasma; test: Ester metabolism stability test: stability in human plasma; format: in vitro ADME; settings: 37° C., 20 minutes
Experimental: 198 μL of human plasma (manufactured by Cosmo Bio Inc.) was added to 2 μL of a DMSO solution containing a 100 μmol/L test substance, and the mixture was incubated at 37° C. for 20 minutes. After the incubation, the metabolic reaction was terminated by the addition of 600 μL of acetonitrile.

[6] = Ester metabolism stability test: metabolite identification by LC-MS; settings: metabolites identified using LC-MS
Text: The metabolites were identified using LC (LC-Nexera X2 manufactured by Shimadzu Corp.)-MS (API4000 manufactured by AB Sciex Pte Ltd.).

[7] = oral 10 mg/kg, 0 hr (before administration)
[8] = oral 30 mg/kg, 0 hr (before administration)

SMILES: CC(=O)Oc1ccccc1C(=O)O [Aspirin]
- PT (ratio) [1]: 0.99 ± 0.01 ratio
- Thrombus weight [1]: 96 ± 9 mg
- aPTT (ratio) [1]: 0.97 ± 0.01 ratio
- Bleeding time ([2]; rabbit, maximum 60 minutes): 1087 ± 522 s
- Bleeding time (fold-increase) ([2]; ratio to vehicle group average): 1.9 ± 0.9 fold-increase

SMILES: Cl.N[C@H](CF)[C@H]1CC[C@H](C(=O)N2CC[C@@H](C3CCCCC3)[C@H]2C(=O)Nc2ccc3c(c2)cc2n3C3(CCC3)OC2=O)CC1 [Example 7, (3S)-1-({trans-4-[(1S)-1-amino-2-fluoroethyl]cyclohexyl}carbonyl)-3-cyclohexyl-N-(1′-oxo-1′H-spiro[cyclobutane-1,3′-[1,3]oxazolo[3,4-a]indol]-7′-yl)-L-prolinamide hydrochloride]
- aPTT [3, 7]: 23.8 ± 2.2 s
- aPTT (ratio) [3, 7]: 1.00 ± 0.00 ratio
- aPTT ([3]; oral 10 mg/kg, 0.5 hr): 26.9 ± 3.3 s
- aPTT (ratio) ([3]; oral 10 mg/kg, 0.5 hr): 1.13 ± 0.03 ratio
- aPTT ([3]; oral 10 mg/kg, 1 hr): 30.5 ± 3.0 s
- aPTT (ratio) ([3]; oral 10 mg/kg, 1 hr): 1.29 ± 0.04 ratio
- aPTT ([3]; oral 10 mg/kg, 2 hr): 36.5 ± 4.1 s
- aPTT (ratio) ([3]; oral 10 mg/kg, 2 hr): 1.53 ± 0.07 ratio
- aPTT ([3]; oral 10 mg/kg, 4 hr): 38.5 ± 3.5 s
- aPTT (ratio) ([3]; oral 10 mg/kg, 4 hr): 1.62 ± 0.00 ratio
- aPTT ([3]; oral 10 mg/kg, 6 hr): 37.5 ± 4.5 s
- aPTT (ratio) ([3]; oral 10 mg/kg, 6 hr): 1.57 ± 0.06 ratio
- aPTT ([3]; oral 10 mg/kg, 24 hr): 26.1 ± 3.2 s
- aPTT (ratio) ([3]; oral 10 mg/kg, 24 hr): 1.10 ± 0.06 ratio
- aPTT [3, 8]: 23.9 ± 1.6 s
- aPTT (ratio) [3, 8]: 1.00 ± 0.00 ratio
- aPTT ([3]; oral 30 mg/kg, 0.5 hr): 27.6 ± 3.2 s
- aPTT (ratio) ([3]; oral 30 mg/kg, 0.5 hr): 1.15 ± 0.10 ratio
- aPTT ([3]; oral 30 mg/kg, 1 hr): 32.8 ± 2.8 s
- aPTT (ratio) ([3]; oral 30 mg/kg, 1 hr): 1.37 ± 0.03 ratio
- aPTT ([3]; oral 30 mg/kg, 2 hr): 36.9 ± 0.8 s
- aPTT (ratio) ([3]; oral 30 mg/kg, 2 hr): 1.55 ± 0.07 ratio
- aPTT ([3]; oral 30 mg/kg, 4 hr): 39.4 ± 1.4 s
- aPTT (ratio) ([3]; oral 30 mg/kg, 4 hr): 1.65 ± 0.12 ratio
- aPTT ([3]; oral 30 mg/kg, 6 hr): 39.4 ± 1.5 s
- aPTT (ratio) ([3]; oral 30 mg/kg, 6 hr): 1.65 ± 0.12 ratio
- aPTT ([3]; oral 30 mg/kg, 24 hr): 34.0 ± 3.3 s
- aPTT (ratio) ([3]; oral 30 mg/kg, 24 hr): 1.42 ± 0.05 ratio
- Residual rate (%) Human liver S9 [4]: 71%
- Residual rate (%) Human plasma [5]: <1%
- Metabolite formed (conversion by metabolism) [6]: converted to the compound of Reference Example 2-6
